Measurements reported in US7964573B2, “Regulating expression of transient receptor potential channel genes” (The Regents of the University of California, priority 2005, dated 2011).
“Also recorded” adds a separate entry of the source.

Tests used:
[1] = tested on: IPAH-PASMC; experiment: [3H]-thymidine incorporation (proliferation) in IPAH-PASMC; assay type: cell-based, human; settings: proliferating IPAH-PASMC, transfected
Protocol: (§1) Another aspect relates to the use of siRNA to inhibit the expression of TRPC6 gene. Human PASMC were isolated and cultured from normal subjects (normal PASMC) and subjects with IPAH (IPAH-PASMC). Levels of canonical TRP (TRPC) isoforms (mRNA and protein) were measured using RT-PCR and Western blot analysis. In addition, levels of TRPC6 in vivo were measured and compared with levels of Ki67, a nuclear protein expressed during S and G2/M phase of the cell cycle, using in situ immunofluorescence staining of proliferating PASMC (see Kuga et al. (1996) Circ. Res. 79:14-19). Cell cycle phase was determined by BrdU uptake and by [^3H]-thymidine incorporation into DNA. PASMC were incubated with [^3H]-thymidine for 16 hours following 24 hours of growth arrest and 48 hours of growth induction and measuring percent extent of radiolabel incorporation into precipitated DNA.
(§2) In separate experiments, siRNA was used to prevent expression and translation of the TRPC6 gene in vitro. Several fragments of open reading frames in the TRPC6 gene were identified which suppressed expression of TRPC6 protein and mRNA levels. […] A scrambled siRNA vector served as a non-silencing control.

[2] = tested on: TRPC6; experiment: siRNA suppression of TRPC6 protein and mRNA levels in COS-7 cells; assay type: cell-based
Text: as §2

[3] = tested on: TRPC6; experiment: TRPC6 mRNA and protein expression in IPAH-PASMC after siRNA transfection (RT-PCR, Western blot); assay type: cell-based, human; settings: for TRPC6 protein expression: IPAH-PASMC, transfected
Protocol: as §1, §2

TRPC6 siRNA-2: siRNA against the TRPC6 gene, sequence AAGGTCTTTATGCAATTGCTG (SEQ ID NO: 5) (listed as DNA, chemistry not given here)
[3H]-thymidine incorporation (proliferation) ([1]; listed as TRPC6-siRNA): markedly attenuated
[3H]-thymidine incorporation (proliferation) ([1]; listed as TRPC6 siRNA): significantly decreased; also recorded: attenuates
suppression of expression of TRPC6 protein and mRNA levels [2]: most effective
TRPC6 protein expression [3]: significantly decreased; also recorded: attenuates
TRPC6 protein expression ([3]; listed as TRPC6 siRNA (SEQ ID NO: 5)): significantly inhibits
TRPC6 mRNA expression level ([3]; PASMC from patients with IPAH): significantly inhibits
